This is an account of results in PubChem BioAssay (NCI).

The structures appear in SMILES notation. Values joined by “and” are separate entries in the source; they are usually repeats but may differ in a detail not shown here. Identical values can stand only once.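 96-well plates; 48 h exposure; 5 concentrations. Endpoints by linear interpolation between flanking doses. Not reached: highest tested concentration assigned. GI50 marks 50% less growth. TGI denotes the concentration required for complete inhibition of growth.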

Holding throughout (assay): NCI tumour cell line growth inhibition, 48 h
In assay [1] the test system is OVCAR-8 ovarian.
Assay [2] deals with SF-539 CNS.
Assay [3] has as its system HCC-2998 colon.
The subject of assay [4] is OVCAR-4 ovarian.
Assay [5] relates to UO-31 renal.
The test system of assay [6] is TK-10 renal.
Assay [7] relates to RXF 393 renal.
The subject of assay [8] is DU-145 prostate.
Assay [9] concerns HL-60(TB) leukemia.
Assay [10] relates to EKVX NSCLC.

With `COc1ccc(C(=O)c2cc(OC)c(OC)c(OC)c2)cc1`, the TGI in [1] was 31.7 µM; in assay [2] it was 1.28 µM; in assay [3] it was over 14 µM; in [4], over 100 µM; in assay [5], 61.9 µM; in assay [6], over 100 µM. Also, the TGI in [7] is over 100 µM; in [8] it was 1.58 µM; in [9] it was 13.2 µM; in assay [10], over 100 µM.
Consider `NC(=O)NNCc1ccccc1`, for which the TGI in [1], in [2], in assay [3], in assay [4], in [5] and in [6] was over 100 µM in each case. Moreover, the TGI in assay [7], in assay [8], in assay [9] and in assay [10] was over 100 µM throughout.
On to `C=C1C(=O)O[C@H]2[C@H]1CC/C(CNC(=O)Cc1c[nH]c3ccccc13)=C\CC[C@@]1(C)O[C@@H]21`, for which the GI50 in assay [1] is 1.12 µM; in [2], 1.92 µM; in assay [3], 4 µM; in assay [4], 1.74 µM; in assay [5] it was 6 µM; in assay [6], 0.747 µM. The GI50 was 1.3 µM in assay [7], 0.834 µM in [8], 0.314 µM in [9] and 10.6 µM in [10]. Also, the TGI in assay [1] was found to be 12.4 µM; in assay [2], 9.1 µM; in [3], 15.5 µM; in assay [4], 15.7 µM; in [5] it was 19.3 µM; in [6], 2.01 µM. In addition, the TGI in [7] turned out to be 5.65 µM; in [8] it was 12.3 µM; in assay [9], 1.02 µM; in assay [10] it was 22.4 µM.
For the compound `O=[N+]([O-])c1ccc(S(=O)(=O)Cc2ccccc2)c([N+](=O)[O-])c1`, the TGI in [1] amounted to 3.7 µM; in [2], 3.8 µM; in assay [3], 19.7 µM; in assay [4], 5.77 µM; in assay [5], 2.95 µM; in assay [6], 3.28 µM. Besides, the TGI in assay [7] is 3.4 µM; in assay [8], 9.59 µM; in assay [9], 4.03 µM; in assay [10], 4.36 µM.
As for `OC(c1cccc(-n2ccc(C(F)(F)F)n2)c1)c1cnccc1NC1CCCCCC1` (stereo not given), the GI50 in assay [1] was 1.92 µM; in assay [2], 1.69 µM; in assay [3] it was 1.61 µM; in assay [4] it was 1.64 µM; in assay [5] it was 1.37 µM; in [6], 1.77 µM. In addition, the GI50 in assay [7] was 1.36 µM; in [8], 1.81 µM; in [9], 2.06 µM; in [10], 1.66 µM. For the same compound, the TGI in [1] is 3.93 µM; in assay [2], 3.1 µM; in assay [3] it was 3.03 µM; in assay [4], 3.07 µM; in [5], 2.7 µM; in assay [6], 3.49 µM. For the same compound, the TGI in assay [7] was determined as 2.74 µM; in assay [8] it was 3.24 µM; in [9], 4.26 µM; in assay [10] it was 3.16 µM.
Regarding `COc1cccc2c1C(=O)C=CC2=O`, the TGI turned out to be 9.97 µM in assay [1]; 30.1 µM in [2]; 29.3 µM in assay [3]; 3.77 µM in assay [4]; 28.9 µM in assay [5]; 28.4 µM in assay [6]. In addition, the TGI in assay [7] stood at 17.7 µM; in [8], 33.5 µM; in [9], 1.09 µM; in [10], 32.8 µM.
With `C[C@@H]1COCCN1c1cc(C2([S@](C)(=N)=O)CC2)nc(-c2ccnc3[nH]ccc23)n1`, the GI50 was 6.65 µM and > 10 µM in assay [1]; 1.19 µM and 1.99 µM in assay [2]; 2.56 µM and 4.97 µM in [3]; 2.27 µM and 3.62 µM in [4]; 2.95 µM and 2.04 µM in assay [5]; 3.69 µM and 1.68 µM in assay [6]. Moreover, the GI50 is 1.33 µM and 3.34 µM in [7]; 3.1 µM and 3.64 µM in assay [8]; 1.95 µM and 3.39 µM in [9]; 6.07 µM and > 10 µM in assay [10]. Besides, the TGI was over 84.5 µM in assay [1]; 8.03 µM and > 10 µM in [2]; over 100 µM in [3]; 40.9 µM and > 10 µM in assay [4]; 32.1 µM and > 10 µM in assay [5]; over 59.7 µM in assay [6]. For the same compound, the TGI in [7] was 6.37 µM and > 10 µM; in assay [8], over 100 µM; in [9], 12.8 µM and > 10 µM; in assay [10], 61.7 µM and > 10 µM.
`CCN(CC)CCOCC[C@H]1CC[C@H]2[C@@H]3[C@H](C)Cc4cc(OS(N)(=O)=O)ccc4[C@H]3CC[C@]12C`: the GI50 in assay [1] was 2.05 µM; in assay [2], 0.654 µM; in assay [3], 1.63 µM; in assay [4], 0.806 µM; in assay [5], 1.54 µM; in assay [6], 1.3 µM. Besides, the GI50 in assay [7] is 1.67 µM; in [8], 1.48 µM; in [9] it was 1.64 µM; in assay [10], 0.765 µM. The TGI in assay [1] came to 5.67 µM; in assay [2] it was 1.87 µM; in [3], 3.23 µM; in assay [4] it was 2.29 µM; in [5] it was 3.7 µM; in [6] it was 3.34 µM. Further, the TGI in [7] turned out to be 4.12 µM; in assay [8], 2.94 µM; in [9], 3.87 µM; in assay [10] it was 3.65 µM.
As to `Nc1ccc2c(c1)C(=O)C(=O)c1c-2nc2ccccn12`, the GI50 is 1.29 µM in [1]; 1.66 µM in assay [2]; 2.22 µM in assay [3]; 1.23 µM in assay [4]; 1.28 µM in assay [5]; 15.3 µM in assay [6]. Further, the GI50 is 1.6 µM in [7], 0.556 µM in assay [8], 1.96 µM in [9] and 2.04 µM in [10]. The TGI was found to be 3.23 µM in assay [1]; 3.03 µM in assay [2]; 4.09 µM in [3]; 2.49 µM in [4]; 2.64 µM in assay [5]; 29.3 µM in [6]. Further, the TGI in assay [7] stood at 2.99 µM; in [8] it was 1.79 µM; in assay [9] it was 5.46 µM; in assay [10], 4.52 µM.
